What was measured:
SEM cells [1] = experiment: cell viability relative to DMSO control; higher = less cytotoxic; conditions: 48 h
How it was run: (§1)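 In 1536-well plates, 5 μl of leukemia cells were seeded per well: 500 cells/well for NOMO1 or SEM and 1000 cells/well for P12-Ichikawa. Each line had first been adapted for at least four passages in each medium. Library compounds in DMSO were pin-dosed at 11 threefold concentrations between 47 μM and 0.79 nM, and CellTiter-Glo One luminescence was read after 48 h at 37°C. Viability is a per-plate percentage relative to DMSO wells, with cell-free wells as background.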

NOMO1 = experiment: AUC of viability dose-response curve (% viability x log10 dose units); higher = less sensitive; conditions: 48 h
How it was run: (§2)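 Area under the curve was integrated by trapezoidal rule from a log-logistic fit of normalised viability, with curves exceeding full viability scaled and quality-control failures removed. The fit had four parameters over log10 doses. Viability came from CellTiter-Glo One luminescence, normalised per plate to DMSO and cell-free wells, after leukemia cells adapted to each medium (500 or 1000 cells/well, 1536-well plates) were exposed to library compounds in DMSO for 48 h at 37°C. The 11 threefold doses ran from 47 μM to 0.79 nM.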

P12-Ichikawa [2] = experiment: as above; conditions: 48 h
How it was run: as §2

SEM cells [3] = experiment: as above; conditions: 48 h
How it was run: as §2

P12-Ichikawa [4] = experiment: cell viability relative to DMSO control; higher = less cytotoxic; conditions: HPLM + 10% dialyzed FBS, 48 h
How it was run: as §1

CNC(=O)N1\N=C(\C2=CC=C(N)C=C2)C3=CC4=C(OCO4)C=C3CC1C (stereo not given)
cell viability [%], SEM cells [1]
Conditions | HPLM + 10% dialyzed FBS | RPMI 5 mM glucose + 10% FBS
0.000781 µM | 111 | 120
0.00234 µM | 113 | 134
0.00702 µM | 130 | 124
0.0211 µM | 121 | 145
0.0632 µM | 142 | 138
0.19 µM | 133 | 134
0.569 µM | 122 | 132
1.71 µM | 129 | 129
5.12 µM | 98.3 | 79.9
15.4 µM | 43.8 | 47.1
46.1 µM | 8.25 | 8.13

AUC of viability dose-response curve
Conditions | NOMO1 | P12-Ichikawa [2] | SEM cells [3]
HPLM + 10% dialyzed FBS | 440 | 449 | 413
RPMI 5 mM glucose + 10% FBS | 451 | 447 | 400
RPMI 5 mM glucose + 10% dialyzed FBS | 449 | 449 | 392

Clc1ccc(COC(Cn2ccnc2)c2ccc(Cl)cc2Cl)c(Cl)c1 (stereo not given)
SEM cells [1], HPLM + 10% dialyzed FBS
Conditions | cell viability [%]
0.000781 µM | 121
0.00234 µM | 120
0.00702 µM | 112
0.0211 µM | 123
0.0632 µM | 104
0.19 µM | 115
0.569 µM | 114
1.71 µM | 124
5.12 µM | 99.3
15.4 µM | 109
46.1 µM | 70

AUC of viability dose-response curve
Conditions | NOMO1 | P12-Ichikawa [2] | SEM cells [3]
HPLM + 10% dialyzed FBS | 425 | 452 | 462
RPMI 5 mM glucose + 10% FBS | 468 | 467 | 460
RPMI 5 mM glucose + 10% dialyzed FBS | 452 | 419 | 449

NC(=O)c1ccc2[nH]c(-c3ccc(Oc4ccc(Cl)cc4)cc3)nc2c1
SEM cells [1], HPLM + 10% dialyzed FBS
Conditions | cell viability [%]
0.000781 µM | 115
0.00234 µM | 113
0.00702 µM | 136
0.0211 µM | 121
0.0632 µM | 117
0.19 µM | 65.4
0.569 µM | 133
1.71 µM | 124
5.12 µM | 134
15.4 µM | 118
46.1 µM | 91.9

AUC of viability dose-response curve
Conditions | NOMO1 | P12-Ichikawa [2] | SEM cells [3]
HPLM + 10% dialyzed FBS | 457 | 463 | 470
RPMI 5 mM glucose + 10% FBS | 472 | 454 | 446
RPMI 5 mM glucose + 10% dialyzed FBS | 475 | 453 | 463

CCNC(=O)Nc1ccc2ncc(Nc3ccc(C)cc3)nc2n1
cell viability [%], SEM cells [1]
Conditions | HPLM + 10% dialyzed FBS | RPMI 5 mM glucose + 10% FBS
0.000781 µM | 129 | 119
0.00234 µM | 120 | 139
0.00702 µM | 115 | 117
0.0211 µM | 113 | 119
0.0632 µM | 118 | 124
0.19 µM | 109 | 98.3
0.569 µM | 113 | 124
1.71 µM | 108 | 114
5.12 µM | 110 | 93.3
15.4 µM | 68.1 | 59.3
46.1 µM | 34.8 | 21.2

AUC of viability dose-response curve
Conditions | NOMO1 | P12-Ichikawa [2] | SEM cells [3]
HPLM + 10% dialyzed FBS | 430 | 459 | 437
RPMI 5 mM glucose + 10% FBS | 453 | 465 | 418
RPMI 5 mM glucose + 10% dialyzed FBS | 452 | 464 | 402

CN(C)C(=O)C(CCN1CCC(O)(c2ccc(Cl)cc2)CC1)(c1ccccc1)c1ccccc1
Conditions | AUC of viability dose-response curve | cell viability [%]
NOMO1, HPLM + 10% dialyzed FBS | 448 | –
NOMO1, RPMI 5 mM glucose + 10% FBS | 445 | –
NOMO1, RPMI 5 mM glucose + 10% dialyzed FBS | 436 | –
P12-Ichikawa [2], HPLM + 10% dialyzed FBS | 460 | –
P12-Ichikawa [2], RPMI 5 mM glucose + 10% FBS | 444 | –
P12-Ichikawa [2], RPMI 5 mM glucose + 10% dialyzed FBS | 444 | –
P12-Ichikawa [4], 0.000781 µM | – | 122
P12-Ichikawa [4], 0.00234 µM | – | 123
P12-Ichikawa [4], 0.00702 µM | – | 133
P12-Ichikawa [4], 0.0211 µM | – | 122
P12-Ichikawa [4], 0.0632 µM | – | 129
P12-Ichikawa [4], 0.19 µM | – | 125
P12-Ichikawa [4], 0.569 µM | – | 127
P12-Ichikawa [4], 1.71 µM | – | 116
P12-Ichikawa [4], 5.12 µM | – | 127
P12-Ichikawa [4], 15.4 µM | – | 107
P12-Ichikawa [4], 46.1 µM | – | 69.2
SEM cells [3], HPLM + 10% dialyzed FBS | 445 | –
SEM cells [3], RPMI 5 mM glucose + 10% FBS | 436 | –
SEM cells [3], RPMI 5 mM glucose + 10% dialyzed FBS | 449 | –

cell viability [%], SEM cells [1]
Conditions | HPLM + 10% dialyzed FBS | RPMI 5 mM glucose + 10% FBS
0.000781 µM | 68.1 | 57.8
0.00234 µM | 109 | 108
0.00702 µM | 117 | 141
0.0211 µM | 130 | 127
0.0632 µM | 127 | 114
0.19 µM | 121 | 127
0.569 µM | 122 | 140
1.71 µM | 117 | 117
5.12 µM | 108 | 110
15.4 µM | 86.6 | 75.5
46.1 µM | 23.5 | 10.3

O=C(O)CC/C=C\CC[C@@H]1[C@@H](N2CCCCC2)[C@@H](O)C[C@@H]1OCc1ccc(-c2ccccc2)cc1
Conditions | AUC of viability dose-response curve | cell viability [%]
NOMO1, HPLM + 10% dialyzed FBS | 433 | –
NOMO1, RPMI 5 mM glucose + 10% FBS | 441 | –
NOMO1, RPMI 5 mM glucose + 10% dialyzed FBS | 457 | –
P12-Ichikawa [2], HPLM + 10% dialyzed FBS | 461 | –
P12-Ichikawa [2], RPMI 5 mM glucose + 10% FBS | 457 | –
P12-Ichikawa [2], RPMI 5 mM glucose + 10% dialyzed FBS | 455 | –
P12-Ichikawa [4], 0.000781 µM | – | 124
P12-Ichikawa [4], 0.00234 µM | – | 131
P12-Ichikawa [4], 0.00702 µM | – | 125
P12-Ichikawa [4], 0.0211 µM | – | 126
P12-Ichikawa [4], 0.0632 µM | – | 116
P12-Ichikawa [4], 0.19 µM | – | 119
P12-Ichikawa [4], 0.569 µM | – | 131
P12-Ichikawa [4], 1.71 µM | – | 129
P12-Ichikawa [4], 5.12 µM | – | 107
P12-Ichikawa [4], 15.4 µM | – | 108
P12-Ichikawa [4], 46.1 µM | – | 109
SEM cells [3], HPLM + 10% dialyzed FBS | 461 | –
SEM cells [3], RPMI 5 mM glucose + 10% FBS | 456 | –
SEM cells [3], RPMI 5 mM glucose + 10% dialyzed FBS | 467 | –

SEM cells [1], HPLM + 10% dialyzed FBS
Conditions | cell viability [%]
0.000781 µM | 117
0.00234 µM | 131
0.00702 µM | 117
0.0211 µM | 136
0.0632 µM | 129
0.19 µM | 123
0.569 µM | 127
1.71 µM | 117
5.12 µM | 111
15.4 µM | 114
46.1 µM | 112

CN(C)/N=N/c1nc[nH]c1C(N)=O
SEM cells [1], HPLM + 10% dialyzed FBS
Conditions | cell viability [%]
0.000781 µM | 121
0.00234 µM | 122
0.00702 µM | 117
0.0211 µM | 126
0.0632 µM | 125
0.19 µM | 120
0.569 µM | 128
1.71 µM | 119
5.12 µM | 123
15.4 µM | 106
46.1 µM | 105

AUC of viability dose-response curve
Conditions | NOMO1 | P12-Ichikawa [2] | SEM cells [3]
HPLM + 10% dialyzed FBS | 416 | 422 | 467
RPMI 5 mM glucose + 10% FBS | 435 | 410 | 462
RPMI 5 mM glucose + 10% dialyzed FBS | 392 | 374 | 307
